Turning to `CC(C)C[C@H](NC(=O)N1CCCCCC1)C(=O)N[C@H](Cc1ccc(OCc2ccccc2)cc1)C(=O)OC(C)(C)C`, the melting point (in general, the temperature, or range, at which the solid turns liquid) is 38 to 40 °C. The value for `COc1ccc(COC(=O)N[C@@H](Cc2ccccc2)C(=O)O)cc1` was 87 to 88 °C.

`O=C1c2ccccc2-c2[nH]c(=O)c(-c3ccccc3)nc21` had a melting point greater than 300 °C. The value for `CCCOC(C)c1ccc(C(=O)O)cc1` (single isomer, unassigned; (+)) was 56 to 58 °C; that for `NC(C(=O)OC1CCCCC1)C(=O)OC1CCCCC1` was 46 to 47 °C. On to `Cc1cc2c(cc1C#Cc1ccc(C(=O)O)cc1)C(C)(C)CCC2`, for which the melting point was in the range of 203 to 206 °C.

With `O=S(=O)(Nc1ccc(OCc2ccc3ccccc3n2)cc1)c1cccc(C(F)(F)F)c1`, the melting point was in the range of 81 to 83 °C.

Take `CC(C)(CCc1ccc(NC=NO)cc1)CN1CCCC1`: the melting point lay in the range of 120 to 122 °C. As for `CCOC(=O)c1sc(S(C)(=O)=O)c2c1CCc1cnn(C)c1-2`, the figure is 140 to 141 °C; as for `COc1cc(C(=O)NS(=O)(=O)c2ccccc2C)ccc1Cc1cn(C)c2ccc(CCNC(=O)N(C)C)cc12`, 124 to 131 °C; as for `COc1ccc(C(=O)OC2C(O)C=C(C)C(=O)CC2(C)C)cc1OC` (configuration not stated), 150 to 152 °C. Consider `CCCN(CCC)CC1CCCCN1CCNC(=O)N1c2ccccc2C(=O)Nc2cccc(Cl)c21` (configuration not stated), for which the melting point lay in the range of 71 to 78 °C. The compound `COc1ccc(CNc2nc(OCc3ccccn3)ncc2C(=O)OCc2ccccn2)cc1Cl` gave a melting point of 115 to 120 °C. The compound `CC(C)(C)C(=O)C(Br)C(Br)C(=O)C(C)(C)C` (configuration not stated) had a melting point of 107 to 109 °C. The value for `CCCCc1ncc(C(=O)OCC)c(=O)n1Cc1ccc(-c2ccccc2-c2nc(=O)o[nH]2)cc1` was 151 to 154 °C; that for `COc1ccnc(CCc2nc3cc(-c4ccc(S(=O)(=O)Nc5ccccc5)cc4)cnc3[nH]2)c1` was 231 to 233 °C. As for `CC(C)(Oc1ccc(OCCOc2cc(C(C)(C)C)c(O)c(C(C)(C)C)c2)cc1)C(=O)O`, the figure is 124 °C; as for `COc1cc(I)c(C(C)=NOCc2ccc([N+](=O)[O-])cc2)cc1O`, 121 to 127 °C; as for `COC(=O)c1cc(C(C)=O)ccc1OC`, 72 to 74 °C. With `O=C(Cn1ncc(-c2ccccc2)c1-c1ccccc1)NCCN1CCCCC1`, the melting point lay in the range of 95 to 97 °C.

Regarding `Nc1nc(OCc2ccc(F)cc2)ncc1F`, the melting point was in the range of 129 to 131 °C. With `CCCOc1ccccc1-c1nc(-c2nnn[nH]2)cc(=O)[nH]1`, the melting point is 219 to 221 °C.

Compound `CCS(=O)(=O)c1cn(C)cc(-c2cccc(C(F)(F)F)c2)c1=O` returned a melting point of 196 to 198 °C.

Compound `CSc1nnc2n1C=C(C)c1ccccc1C2` gave a melting point of 129 to 130 °C. In the case of `CCOC(=O)C(C)(C)NC(=O)c1nnc2ccc(Cl)nn12`, the melting point lay in the range of 132 to 133 °C. Regarding `Cc1ccc(S(=O)(=O)NN=C(Cc2ccc(OCc3ccccc3)cc2)c2cc(OCc3ccccc3)cc(OCc3ccccc3)c2)cc1`, the melting point worked out at 147 °C. The value for `CCOC(=O)Cn1c(=O)n(Cc2ccc(Br)cc2F)c(=O)c2cc(Cl)c(Cl)cc21` was 220 to 221 °C. In the case of `CCC(CC)NC(=O)n1nc(Oc2c(Cl)cc(C(F)(F)F)cc2Cl)cc1C`, the melting point fell in the range of 65 to 67 °C. Turning to `CNC(=O)c1cc(C)ccc1NC(=O)c1ccc(O)cc1`, the melting point was in the range of 250 to 252 °C.

The compound `O=c1cc(-c2c(F)cccc2F)[nH]c(=O)n1-c1ccc(Cl)c(Cl)c1` yielded a melting point of 256 °C. `COc1ccc(C(=O)Nc2c(Cl)cncc2Cl)cc1OC1COCC1OCc1ccccc1` (configuration not stated) showed a melting point of 190 to 191 °C. Regarding `O=c1nc2n(cc1-c1ccccc1)CCC2`, the melting point fell in the range of 200 to 202 °C. The value for `c1ccc(-c2ccc(CCCN3CCN(c4ccccc4)CC3)o2)cc1` was 95 °C; that for `CC(C)(C)ONc1ccccc1` was 67 to 69 °C; that for `CC(C(=O)O)c1ccc2c(c1)C(=O)Cc1cc(Cl)ccc1S2` (configuration not stated) was 195 to 196 °C. The compound `CCc1cccc(-n2cnc(-c3cnc4[nH]cc(C(=O)N[C@@H](C)C(C)(C)C)c4n3)c2)c1` came in with a melting point of 284 to 287 °C. On to `CCOC(=O)c1c(SC)nn(-c2c(Cl)cc(Cl)cc2Cl)c1C`, for which the melting point lay within 95 to 98 °C. Compound `O=C(NCCO)OCc1ccccc1` gave a melting point of 55 to 57 °C. As for `C[C@@H](C(=O)c1ccccc1)[C@H](NC(=O)C(F)(F)F)C(=O)OC(C)(C)C`, the figure is 127 to 128 °C; as for `CN1C(=S)COC1=Nc1cccc(C(F)(F)F)c1`, 84 to 86 °C; as for `COC(=O)c1ccc(NC(=O)C(F)(F)F)c(C(=O)OC)c1`, 239 °C. As for `Cn1c(-c2ccccc2)cc(O)c(C(=O)c2ccccc2)c1=O`, the melting point lay in the range of 149 to 151 °C. In turn, `NCCCOc1ccc(-c2nnc(CSCCOc3ccccc3)o2)cc1` yielded a melting point of 30 to 35 °C.

`O=S(=O)(C(=CNc1ccccn1)c1ccccc1)c1ccccc1` registered a melting point of 159 to 160 °C. For `O=C(CS)N1CCSC1COc1ccccc1O` (configuration not stated), the melting point was 92 to 93 °C. Regarding `COc1ccc2c(c1)CN(C(=O)N(C)C)N=C2Cc1c(Cl)cncc1Cl`, the melting point fell in the range of 160 to 162 °C.

Turning to `CCCCCCCCCCCCCCCCCCOc1ccc2c(c1OCCCCCCCCCCCCCCCCCC)C(=O)c1ccccc1C2=O`, the melting point lay in the range of 100 to 107 °C.

With `Cc1ccc(C=CC(=O)N2CCc3c([nH]c4ccccc34)C2c2ccc3c(c2)OCO3)cc1` (configuration not stated), the melting point came out at 240 °C. `Cc1cc(Oc2c(F)cc(C(F)(F)F)cc2Cl)n[nH]1` yielded a melting point of 116 to 117 °C.

In turn, `O=C(NC(Cc1ccc(OCc2ccccc2)cc1)C(=O)O)c1nc2ccc(-c3ccc(Cl)cc3)cn2c1Cl` (configuration not stated) showed a melting point of 242 to 244 °C. Turning to `CCC(=O)Nc1cc(F)ccc1C(=O)O`, the melting point was in the range of 170 to 171 °C. On to `Cn1cccc(C(=O)Nc2ccc3c(c2)NC(=O)/C3=C\c2ccc[nH]2)c1=O`, for which the melting point was greater than 300 °C. With `Cc1c(CN2CCc3c(c4cccc(F)c4n3C)C2=O)ncn1C`, the melting point lay in the range of 174 to 175 °C.

Compound `Cn1cc(C(=O)O)c([N+](=O)[O-])n1` had a melting point of 185 to 187 °C. In turn, `COC(=O)[C@@H]1CC[C@@H]2CN1C(=O)N2OCc1ccccc1` registered a melting point of 86 °C.

In the case of `COc1ccc(NC(=O)OC(C)(C)C)c(C(=O)C2CC2)c1`, the melting point lay in the range of 96 to 97 °C. In the case of `CCc1nc2c(C)c(NS(C)(=O)=O)cnc2n1-c1ccc(CCNC(=O)NS(=O)(=O)c2ccc(C)cc2)cc1`, the melting point amounted to 166 °C.

`COC(=O)[C@H](Cc1ccccc1)NC(=O)[C@H](Cc1ccccc1)NC(=O)c1cnccn1` had a melting point of 111 to 113 °C.

`Cc1nccn1-c1cccc(C2=Nc3ccc(-c4ccccc4F)cc3NC(=O)C2)c1` returned a melting point of 187 °C. Consider `CCOC(=O)CC(=O)c1cc(F)c(F)c(Br)c1Cl`, for which the melting point is 47 to 51 °C. `Cn1ncc(C(=O)c2ccc(S(C)(=O)=O)c3c2CC2CON=C32)c1OC(=O)c1ccccc1` (configuration not stated) displayed a melting point of 86 to 93 °C. As for `NCC(O)C1=CC2(CCCCC2)c2ccccc21` (configuration not stated), the figure is 117 °C; as for `COc1cc(N2CCC(N3CCN(C)CC3)CC2)ccc1-c1nc2c(N[C@H]3[C@@H](C(N)=O)[C@@H]4C=C[C@H]3C4)ccnc2[nH]1`, 185 to 195 °C.

The compound `COC(=O)/C=C/c1ccc(-c2nc3c(=O)n(CC4CCCCC4)c(=O)n(CC4CCCCC4)c3[nH]2)cc1` yielded a melting point greater than 270 °C. Compound `COC(=O)c1ccccc1-c1cc(-c2ccc(OC)cc2)n(C(C)=O)n1` yielded a melting point of 119 to 121 °C. `CN1CCN(c2cccc3c2C[C@H](NC(=O)c2ccc(C(=O)N4CCOCC4)cc2)CO3)CC1` displayed a melting point of 222 °C.

In turn, `O=C(c1coc(-c2ccc(CCl)cc2)n1)N1CCCC1` returned a melting point of 126 to 128 °C. As for `CCCc1nn(-c2ccc(C(F)(F)F)cn2)cc1CCCOc1cccc(C(C)(C)C(=O)O)c1`, the melting point was 82 to 83 °C.

Compound `O=C1c2cc3c(cc2-c2c1c(Cl)nc1ccccc21)OCO3` came in with a melting point of 265 to 270 °C. Regarding `COC(=O)NC(CC(=O)c1ccc(Cl)cc1)C(=O)O` (configuration not stated), the melting point lay within 141 to 142 °C. As for `Cc1cc(C=O)ccc1-c1ccccc1C(F)(F)F`, the figure is 127 to 130 °C. Regarding `COC(=O)N1CCC(C2(NO)OCCO2)C(=O)C1` (configuration not stated), the melting point was 150 to 152 °C. The value for `CNc1nc2ccc(-c3nc4cc(C)ccn4c3C)cc2s1` was 191 to 194 °C.

For the compound `Cc1c(C)c2c(c(C)c1NC(=O)c1ccc(F)cc1)C(c1ccc(C(C)C)cc1)C(C)(C)O2` (single isomer, unassigned; (+)), the melting point fell in the range of 251 to 253 °C.

As for `COc1cc(OCC(=O)O)c(C)cc1SCc1ccc(-c2ccccc2)cc1`, the melting point lay in the range of 60 to 62 °C.

On to `CN(C)S(=O)(=O)N1CCN(c2ccnc(CO)n2)CC1`, for which the melting point is 148 to 149 °C. Take `OC(=S)c1cccnc1`: the melting point was in the range of 84 to 86 °C. For `COc1cc(C(=O)NS(=O)(=O)c2ccccc2C)ccc1Cc1cccc2ccc(C(N)=O)cc12`, the melting point lay in the range of 255 to 256 °C. In turn, `O=S(=O)(c1ccc(Cl)cc1)N1CCCC1c1ccc(F)c(F)c1` (racemic) returned a melting point of 121 °C.

For `CCCCCC1=NNC(=O)CC1`, the melting point is 40 °C.

In turn, `O=C(O)c1cc(=O)cc(C=Cc2ccc(O)cc2)o1` had a melting point of 256 °C. `CCOC(=O)c1cnc2ccc(OC)cc2c1Cl` came in with a melting point of 93.7 to 95.7 °C. Turning to `CCc1noc(-c2cc3c(cn2)[nH]c2ccc(S(=O)(=O)N(C)C)cc23)n1`, the melting point fell in the range of 266 to 268 °C. The compound `CC(C)c1ccc2ncn(/C=C/C(=O)O)c(=O)c2c1` had a melting point of 242 to 243 °C. `CCCn1nc(C(=O)O)cc1CC(C)(C)NC(=O)OC(C)(C)C` yielded a melting point of 151 to 152 °C. As to `Cc1cc(C)cc(P(=O)(O)c2cc(C)cc(C)c2)c1`, the melting point was in the range of 256 to 261 °C. As for `CN1C(=O)N2CCOC2(c2ccccc2)c2cc(Cl)ccc21` (configuration not stated), the melting point lay in the range of 124 to 125 °C.

Values taken from a melting point compilation (Tetko et al.; mined from patent text by program, amines drawn as free bases though some values may be those of a salt).
